Series [1] can be described thus: Plasma protein bound fraction, mouse. It is filed as in vitro ADME.
The subject of series [2] is Aβ1-42 (MEF PS1wt). Kind of series: Aβ1-42 ELISA in MEF dKO cultures cotransfected with APP-CTF and human presenilin-1 wild type. It is filed as cell-based. The conditions noted are these: wild type human presenilin-1. As to the method:
H4-APPsw cell cultures were maintained on Dulbecco's modified Eagle's medium (DMEM) supplemented with L-glutamine (2 mM), fetal bovine serum (10%), and G418 (100 μg/mL). […] Aβ1-42 and Aβ1-40 assays, and Notch inhibition assays, were carried out as described previously. Mouse embryonic fibroblasts deficient in PS1 and PS2 (MEF dKO) were passaged twice per week in DMEM/F-12 medium, consisting of a 1 : 1 mixture of DMEM and F-12 nutrient mixture supplemented with 10% fetal bovine serum, penicillin, and streptomycin. For expression of human presenilin-1 in MEF dKO cells, the full length human presenilin-1 cDNA open reading frame was cloned between the BamHI and XhoI sites of the vector pcDNA5/FRT (Invitrogen), placing presenilin-1 expression under the control of the CMV promoter. […]
IC50 determinations for Aβ1-42 and Aβ1-40 in H4-APPsw cultures in 384-well format were determined using homogeneous time-resolved fluorescence immunoassays as previously described. […] In other experiments using H4-APPsw cultures, Aβ was quantified by ELISA; for Aβ1-42 the combination of monoclonal antibodies was 26D6 and 565-HRP; for Aβ1-40 it was TSD and 26D6-HRP, and for Aβ1-x it was 4G8 and 26D6-HRP. […] For Aβ in transiently transfected PS1/PS2 dKO fibroblasts, Aβ1-42 was quantified using an ELISA kit (WACO), and Aβ1-40 was quantified by ELISA as described above for H4-APPsw cultures. […]
(An ELISA detects its analyte on a solid surface through an enzyme-linked reagent.)

One may read the IC50 as the point on the concentration scale where inhibition reaches its midpoint. `COc1cc(Nc2nc3n(n2)CCCC[C@H]3c2ccc(F)cc2)ccc1-n1cnc(Cl)c1` [BMS-869780] had a protein bound fraction in series [1] of 99.6%. Further, the concentration for half-maximal inhibition (IC50) in series [2] was found to be 7.7 nM.
